Experimental data reported in patent publication US20230358737A1, “CONTINUOUSLY CHEMICALLY ENHANCED APTAMER SENSORS” (University of Cincinnati, priority 2020, published 2023).
Values after ≈ are worked out from the molar mass of the structure shown.

Key:
[1] = equivalent diffusion distance through oil-membrane compared to water (calculation); assay type: physicochemical
From the text: For this reason, the present inventors chose to use 11 μm thick polycarbonate track-etch membranes instead of thicker hydrophobic membranes such as conventional porous Teflon films (z=10s to 100s of μm). The oil wicks into and remains in the track-etch membrane pores because of its lower interfacial surface tension with the polycarbonate than the water has with polycarbonate. […] The diffusion coefficient of an analyte is dependent on the viscosity of the fluid it is diffusing through. Therefore, an important design element for the oil is to have a low viscosity (diffusion coefficient is inversely proportional to the viscosity of the oil [Walter, A.; Gutknecht, J. Permeability of Small Nonelectrolytes through Lipid Bilayer Membranes. J. Membr. Biol. 1986, 90 (3), 207-217. https://doi.org/10.1007/BF01870127]. Consider an informative example related to the materials used here. The optimal track-etch membranes for this work (see Table 1-below) have an 11 μm membrane thickness and 15.7% porosity, which is equivalent to the analyte having to diffuse through a uniform 70 μm of oil (11 μm/0.157). Now consider castor oil, with a viscosity about 730 times greater than that of water (see Table 2-below). An 11 μm thick castor oil membrane would then be equivalent to a 51,170 μm thick water diffusion distance (11 μum/0.157*730). Alternatively, using a low viscosity oil, such as 1-decanol, the 11 μm thick oil-membrane would have an equivalent thickness of only 945 μm diffusion distance through water (see Table 2).

[2] = cited from earlier work; for LogK (octanol over water): Table 3, ratio of concentration of the oil in octanol and water at equilibrium
[3] = cited from earlier work; for Viscosity at 25° C.: Table 3
[4] = cited from earlier work
[5] = cited from earlier work; remark: listed apart in the source

Row | Equivalent water thickness ([1]; pore size 0.1 μm, open area 3.1%, thickness 6 μm) | Equivalent water thickness ([1]; pore size 0.2 μm, open area 9.4%, thickness 10 μm) | Equivalent water thickness ([1]; pore size 0.4 μm, open area 12.6%, thickness 10 μm) | Equivalent water thickness ([1]; pore size 1.0 μm, open area 15.7%, thickness 11 μm) [μm] | Equivalent water thickness ([1]; pore size 3.0 μm, open area 14.1%, thickness 9 μm) [μm] | SMILES | Log P ([2]; Table 2) | LogK (octanol over water) [2] | Viscosity ([3]; Table 2) [cP] | Viscosity at 25° C. [3] [cP] | Vapor pressure at 25° C. [4] [mmHg] | Solubility in water [5] [µg/mL]
1 | 26,10 μm | 1,434 μm | 1,070 μm | 945 | 861 | CCCCCCCCCCO [1-Decanol] | 5 | 4.57 | 12 | 12 | 0.00851 | –
2 | – | – | – | – | – | CCCCCCCCOCCCCCCCC [Dioctyl ether] | – | 6.9 | – | 0.224 | 0.005 | –
3 | – | – | – | – | – | CCCCCCCCCCCCS [Dodecane thiol] | – | 6.1 | – | – | 0.000015 | <0.2
4 | – | – | – | – | – | CCCCCCCC/C=C\CCCCCCCC(=O)O [Oleic acid] | – | 7.64 | – | 27.64 | 0.0000005 | 0.01 (≈ 0.0354 µM)
5 | – | – | – | – | – | CCCCCCCCCCCCCC [Tetradecane] | – | 8.19 | – | 2.13 | 0.0369 | 0.00033 (≈ 0.00166 µM)
6 | – | – | – | – | – | CC1=C(C/C=C(\C)CCC[C@H](C)CCC[C@H](C)CCCC(C)C)C(=O)c2ccccc2C1=O [Vitamin K1] | – | 10.9 | – | – | – | –
